Measurements from a melting point compilation (Tetko et al.; mined from patent text by program, amines drawn as free bases though some values may be those of a salt).

Row | SMILES | melting point [°C]
1 | Cc1cccc(C)c1NS(=O)(=O)c1cc(S(=O)(=O)Nc2c(C)cccc2C)c2cc(O)ccc2c1 | 162 to 164
2 | O=C(O)CCCCNC(=O)C(CS)Cc1ccccc1 (configuration not stated) | 78 to 79
3 | O=[N+]([O-])c1cccc(C(c2cccc([N+](=O)[O-])c2)(C(F)(F)F)C(F)(F)F)c1 | 118 to 119
4 | COc1cc(Oc2ccc(S(C)(=O)=O)nc2)cc2cc(C3=NCC(CC(=O)NCC(C)(C)O)S3)[nH]c12 (configuration not stated) | 173 to 174
5 | CS(=O)CC(=NC1CCCCC1)c1ccccc1O (configuration not stated) | 133 to 134
6 | Cc1cc(F)cc([N+](=O)[O-])c1C#N | 61 to 63
7 | CCN1C(=O)C(=O)C(C)=C(C#N)C1=O | 159 to 160
8 | O=C(O)c1ccc(-c2ccc3cc(OCc4ccccc4)c(C45CC6CC(CC(C6)C4)C5)cc3c2)cc1O | 263 to 264
9 | O=C(O)CCCC=C(c1ccccc1)c1ccccc1 | 111 to 112
10 | O=c1[nH]ccc2c1ccc1cc[nH]c12 | 244 to 245
11 | COc1ccc(/C=N/Nc2ccccn2)cc1OC1CCCC1 | 142 to 143
12 | COc1cc(C=CC(=O)CCCO)cc(OC)c1 | 74 to 77
13 | CNC(=O)[C@@H]1CCCC[C@@H]1Nc1nc(Cl)ncc1Cl (relative stereo) | 108
14 | N#Cc1nn(-c2c(Cl)cc(C(F)(F)F)cc2Cl)c(N)c1-c1ccccc1F | 197
15 | COc1ccc(Oc2ccc(OCc3ccccc3)cc2[N+](=O)[O-])cc1 | 120
16 | O=[N+]([O-])c1ccc(OCCN2CC=C(c3ccc(F)cc3)CC2)cc1 | 104 to 107
17 | COc1cc2cc(C3=CCN(C)CC3)oc2cc1OC | 73 to 75
18 | COC(=O)C1=C(SCc2ccc(OC)cc2)C2=C(CC=CC=C2)CC1 | 79 to 81
19 | Nc1nc(NC2CCCCC2)nc(NC2CCCCC2)n1 | 153

Further lines, results first:

Row | melting point [°C] | SMILES
20 | 208 to 210 | Cc1nn(C)c2nc(N)c(-c3ccc(F)cc3)nc12
21 | 120 to 128 | O=C(O)C(NS(=O)(=O)c1ccc(Cl)cc1)C1CCCCC1 (configuration not stated)
22 | 98 to 100 | CN(CCO)Cc1cc(C(=O)c2cccs2)cc(C(C)(C)C)c1O
23 | 64 to 66 | O/N=C\c1cccc(Cl)c1
24 | 161 to 162 | CC1Sc2c(C(=O)O)c(=O)c3cc(F)c(N4CCC(N(C)C)C4)c(Cl)c3n21 (configuration not stated)
25 | 202 to 205 | Cc1cc(NC(=O)NC(=O)c2c(Cl)cccc2Cl)cnc1-c1ccccc1
26 | 149 to 152 | Cc1cc(N(C)N)nnc1-c1ccc(C#N)cc1
27 | 68.7 to 69 | CCOC(=O)C(O)(CC(=O)c1ccc(C)c(F)c1)C(=O)OCC
28 | 55 to 56 | CCOC(=O)C(C)Oc1ccc([N+](=O)[O-])cc1 (configuration not stated)
29 | 58 to 63 | O=C(O)[C@@H]1CSCN1C(=O)OCc1ccccc1
30 | 150 to 152 | CCc1cccc(N(C(=O)CCC(=O)O)c2cc(C(C)(C)C)c(O)c(C(C)(C)C)c2)c1
31 | 125 to 127 | CN(C)C(N)=Nc1cc(C#N)ccc1N1CCOCC1
32 | 252 to 254 | Cc1nncn1-c1ccc(Cl)cc1C(=O)O
33 | 115 | O=C(O)COCCN(C1CC1)S(=O)(=O)c1ccccc1Cl
34 | 159 to 161 | CC1=Nc2ccccc2CC(c2ccncc2)N1C (configuration not stated)
35 | 143 | CC(C)(C)OC(=O)Nc1cc(CC#N)c(C#Cc2ccccc2)cc1N
36 | 216 to 217 | CC(Cl)(Cl)C(NC(=O)c1ccc(Cl)cc1)NC(=NC#N)Nc1ccccc1F (configuration not stated)
37 | 67 to 71 | CC(C)C[C@H](NC(=O)[C@@H](S)Cc1ccccc1)C(=O)O
38 | 120 to 122 | Cc1nc(N2CCN(C)CC2)nc(N)c1-c1cccc(Br)c1
39 | 93 to 95 | CCOC(=O)C1=C(C)NC(=S)N(C(=O)OCC)C1c1cccc(C)c1 (configuration not stated)
40 | > 300 | Cn1c2ccccc2c2ccc3c(c21)C(=O)OC3=O
41 | 45 to 47 | CC(=CN(C)C)C(=O)c1ccc(Cl)cc1
42 | 239 to 240 | CCc1c(C(=O)OC(C)C)ncc2[nH]c3ccc4nc(C)sc4c3c12
